Where a name gives a salt, the structure may show the parent alone.
Target: PDE4
Test: In vitro enzyme assay: PDE4 inhibitory activity
Format: biochemical
Conditions: PDE4 enzyme solution from U937 cells (originated from human monocyte), 3H-cAMP substrate, room temperature 30 minutes
Procedure: U937 cells (originated from human monocyte) were cultured in PRMI 1640 medium containing 10% fetal bovine serum. The U937 cells were harvested and homogenized in 20 mM Tris-HCl buffer [pH 8.0, containing PMSF (1 mM), leupeptin (1 μg/ml) and pepstatin A (1 μg/ml)]. After centrifugation (at 15,000 rpm for 10 minutes), the supernatant was recovered and filtered through a 0.45 μm filter. The sample was applied to MonoQ (manufactured by Pharmacia, strong anion exchange resin) column and eluted by a density gradient of 0 to 0.8 M NaCl. Fractions from which the PDE activity was disappeared by 10 μM rolipram (a PDE4-selective inhibitor) were recovered and used as the enzyme solution for the measurement of PDE4 inhibitory activity.
The enzyme activity was measured by the following method. […] To an alumina column (100 μl), 50 μl of the supernatant was applied, eluted with 80 μl of 0.005 N hydrochloric acid, and radioactivity of the eluate was measured.
PDE4 inhibitory activity ratio of the compound of the present invention was calculated by the following equation: PDE4 inhibitory activity ratio (%)=(1−radioactivity in the presence of the compound of the present invention/radioactivity in the absence of the compound of the present invention)×100 […]

Which IC50 does the source give for `COc1ccc(C2(C#N)CCN(CC(=O)NO)CC2)cc1OC1CCCC1` [Example 3, N-hydroxy-2-(4-(3-cyclopentyloxy-4-methoxyphenyl)-4-cyanopiperidin-1-yl)acetamide·hydrochloride] here?
Its IC50 is 0.03 nM.
